Measurements reported in patent US20130123618A1, “Imaging Agents” (priority 2008, published 2013).

How the values were obtained:
[1] = test system: A549, human lung cancer cells implanted in flanks; experiment: tissue distribution in SCID mice bearing A549 tumors; assay type: in vivo; conditions: for tissue distribution, blood / tissue distribution, bone / tissue distribution, brain / tissue distribution, heart / tissue distribution, kidney / tissue distribution, liver / tissue distribution, lung / tissue distribution, muscle / tissue distribution, pancreas / tissue distribution, spleen / tissue distribution, tumor: A549 tumor-bearing SCID mice, tail vein, ave
Protocol: (§1) For the in vitro amino acid uptake studies, all cells can be grown to monolayer confluency in T-175 culture flasks [Corning, Corning, N.Y.] (approx. 1×10^8 cells/flask) in Dulbecco's Modified Eagle's Medium (DMEM) [Sigma, St. Louis, Mo.] in a humidified incubator (37° C., 5% CO2/95% air). Media are supplemented with 10% fetal calf serum [Hyclone, Logan, Utah], and antibiotics (10,000 U/ml penicillin and 10 mg/ml streptomycin) (Sigma, St. Louis, Mo.). For tissue culture passage, monolayer cells are detached by gentle trypsinization, resuspended in complete media, and split 1:10 into new T-flasks. Cultures are passaged weekly, and fed fresh media every 2 to 3 days. To initiate tumor growth in SCID mice, 1×10^6 cells are injected s.c. bilaterally into the flanks (inguinal region) of the recipient animals using a 1 ml syringe with a 27 gauge needle. Ex vivo experiments can be performed with animals containing tumors weighing between 500 mg and 1 g, as estimated by caliper measurement (tumor weight=(π/6)*abc, where a, b and c are the tumor length, width and height, respectively).
(§2) Tissue distribution of the compounds is measured in SCID mice (average weight, 20-25 g) bearing human tumors as follows. The candidate radioligands (20 uCi in 0.4 ml 0.9% NaCl) are injected into the tail vein of tumor-bearing mice. […] Tissues (blood, heart, liver, lungs, kidneys, bone, thyroid, muscle, brain and tumor) are excised, rinsed in saline, and blotted dry. The tissues are weighed, placed into 12×75 mm glass vials, the radioactivity determined with a gamma counter, and the percent dose/gram calculated. Total activities of blood and muscle are calculated by assuming that they account for 7% and 40% of the total body mass, respectively.
(§3) Tables 3-7 show the results of the biodistribution studies with the separate enantiomers of anti-2-[^18F]FACPC and racemic anti-2-[^18F]FACBC as a comparison in SCiD mice implanted in their flanks with A549, human lung cancer cells and DU145, human prostate cancer cells.

[2] = test system: DU145, human prostate cancer cells implanted in flanks; experiment: tissue distribution in SCID mice bearing DU145 tumors; assay type: in vivo; conditions: for tissue distribution, blood / tissue distribution, bone / tissue distribution, brain / tissue distribution, heart / tissue distribution, kidney / tissue distribution, liver / tissue distribution, lung / tissue distribution, muscle / tissue distribution, pancreas / tissue distribution, spleen / tissue distribution, tumor: DU145 tumor-bearing SCID mice, tail vein, ave
Protocol: as §1, §2, §3

NC1(C(=O)O)CCC1[18F] (racemic) [racemic anti-2-[^18F]FACBC]
tissue distribution, blood ([1]; 15 min): 3.39 percent dose/gram
tissue distribution, bone ([1]; 15 min): 2.07 percent dose/gram
tissue distribution, brain ([1]; 15 min): 0.27 percent dose/gram
tissue distribution, heart ([1]; 15 min): 2.71 percent dose/gram
tissue distribution, kidney ([1]; 15 min): 10.12 percent dose/gram
tissue distribution, liver ([1]; 15 min): 3.15 percent dose/gram
tissue distribution, lung ([1]; 15 min): 4.23 percent dose/gram
tissue distribution, muscle ([1]; 15 min): 1.38 percent dose/gram
tissue distribution, pancreas ([1]; 15 min): 48.45 percent dose/gram
tissue distribution, spleen ([1]; 15 min): 7.91 percent dose/gram
tissue distribution, tumor ([1]; 15 min): 5.11 percent dose/gram
tissue distribution, blood ([1]; 30 min): 2.43 percent dose/gram
tissue distribution, bone ([1]; 30 min): 1.64 percent dose/gram
tissue distribution, brain ([1]; 30 min): 0.26 percent dose/gram
tissue distribution, heart ([1]; 30 min): 2.24 percent dose/gram
tissue distribution, kidney ([1]; 30 min): 5.48 percent dose/gram
tissue distribution, liver ([1]; 30 min): 2.70 percent dose/gram
tissue distribution, lung ([1]; 30 min): 3.03 percent dose/gram
tissue distribution, muscle ([1]; 30 min): 1.44 percent dose/gram
tissue distribution, pancreas ([1]; 30 min): 44.17 percent dose/gram
tissue distribution, spleen ([1]; 30 min): 5.03 percent dose/gram
tissue distribution, tumor ([1]; 30 min): 4.29 percent dose/gram
tissue distribution, blood ([1]; 60 min): 1.09 percent dose/gram
tissue distribution, bone ([1]; 60 min): 1.02 percent dose/gram
tissue distribution, brain ([1]; 60 min): 0.16 percent dose/gram
tissue distribution, heart ([1]; 60 min): 1.41 percent dose/gram
tissue distribution, kidney ([1]; 60 min): 2.25 percent dose/gram
tissue distribution, liver ([1]; 60 min): 1.47 percent dose/gram
tissue distribution, lung ([1]; 60 min): 1.40 percent dose/gram
tissue distribution, muscle ([1]; 60 min): 0.90 percent dose/gram
tissue distribution, pancreas ([1]; 60 min): 20.64 percent dose/gram
tissue distribution, spleen ([1]; 60 min): 2.86 percent dose/gram
tissue distribution, tumor ([1]; 60 min): 3.04 percent dose/gram
tissue distribution, blood ([1]; 120 min): 0.41 percent dose/gram
tissue distribution, bone ([1]; 120 min): 0.62 percent dose/gram
tissue distribution, brain ([1]; 120 min): 0.15 percent dose/gram
tissue distribution, heart ([1]; 120 min): 0.86 percent dose/gram
tissue distribution, kidney ([1]; 120 min): 1.03 percent dose/gram
tissue distribution, liver ([1]; 120 min): 0.59 percent dose/gram
tissue distribution, lung ([1]; 120 min): 0.56 percent dose/gram
tissue distribution, muscle ([1]; 120 min): 0.77 percent dose/gram
tissue distribution, pancreas ([1]; 120 min): 9.80 percent dose/gram
tissue distribution, spleen ([1]; 120 min): 1.48 percent dose/gram
tissue distribution, tumor ([1]; 120 min): 2.30 percent dose/gram
uptake of radioactivity in the tumors compared with muscle ([1]; A549 tumors, SCID mice, time points sampled post injection): greater than muscle
tissue distribution, blood ([2]; 15 min): 2.80 percent dose/gram
tissue distribution, bone ([2]; 15 min): 1.06 percent dose/gram
tissue distribution, brain ([2]; 15 min): 0.17 percent dose/gram
tissue distribution, heart ([2]; 15 min): 2.07 percent dose/gram
tissue distribution, kidney ([2]; 15 min): 6.82 percent dose/gram
tissue distribution, liver ([2]; 15 min): 2.32 percent dose/gram
tissue distribution, lung ([2]; 15 min): 3.35 percent dose/gram
tissue distribution, muscle ([2]; 15 min): 0.83 percent dose/gram
tissue distribution, pancreas ([2]; 15 min): 29.02 percent dose/gram
tissue distribution, spleen ([2]; 15 min): 4.38 percent dose/gram
tissue distribution, tumor ([2]; 15 min): 2.95 percent dose/gram
tissue distribution, blood ([2]; 30 min): 1.86 percent dose/gram
tissue distribution, bone ([2]; 30 min): 1.63 percent dose/gram
tissue distribution, brain ([2]; 30 min): 0.16 percent dose/gram
tissue distribution, heart ([2]; 30 min): 1.82 percent dose/gram
tissue distribution, kidney ([2]; 30 min): 4.47 percent dose/gram
tissue distribution, liver ([2]; 30 min): 2.09 percent dose/gram
tissue distribution, lung ([2]; 30 min): 2.32 percent dose/gram
tissue distribution, muscle ([2]; 30 min): 1.00 percent dose/gram
tissue distribution, pancreas ([2]; 30 min): 29.29 percent dose/gram
tissue distribution, spleen ([2]; 30 min): 4.74 percent dose/gram
tissue distribution, tumor ([2]; 30 min): 3.54 percent dose/gram
tissue distribution, blood ([2]; 60 min): 0.80 percent dose/gram
tissue distribution, bone ([2]; 60 min): 2.22 percent dose/gram
tissue distribution, brain ([2]; 60 min): 0.18 percent dose/gram
tissue distribution, heart ([2]; 60 min): 1.32 percent dose/gram
tissue distribution, kidney ([2]; 60 min): 1.82 percent dose/gram
tissue distribution, liver ([2]; 60 min): 1.23 percent dose/gram
tissue distribution, lung ([2]; 60 min): 1.18 percent dose/gram
tissue distribution, muscle ([2]; 60 min): 1.15 percent dose/gram
tissue distribution, pancreas ([2]; 60 min): 15.01 percent dose/gram
tissue distribution, spleen ([2]; 60 min): 2.85 percent dose/gram
tissue distribution, tumor ([2]; 60 min): 2.57 percent dose/gram
tissue distribution, blood ([2]; 120 min): 0.39 percent dose/gram
tissue distribution, bone ([2]; 120 min): 0.66 percent dose/gram
tissue distribution, brain ([2]; 120 min): 0.13 percent dose/gram
tissue distribution, heart ([2]; 120 min): 0.82 percent dose/gram
tissue distribution, kidney ([2]; 120 min): 0.78 percent dose/gram
tissue distribution, liver ([2]; 120 min): 0.43 percent dose/gram
tissue distribution, lung ([2]; 120 min): 0.46 percent dose/gram
tissue distribution, muscle ([2]; 120 min): 0.72 percent dose/gram
tissue distribution, pancreas ([2]; 120 min): 5.92 percent dose/gram
tissue distribution, spleen ([2]; 120 min): 0.87 percent dose/gram
tissue distribution, tumor ([2]; 120 min): 1.85 percent dose/gram
uptake of radioactivity in the tumors compared with muscle ([2]; DU145 tumors, SCID mice, time points sampled post injection): greater than muscle
